Holding throughout (assay): Growth inhibitory activity of compounds on BaF3 cell lines stably transfected with kinase (MTS, 48 h)
Holding throughout (assay type): cell-based

For experiment [1], the target named is T1, various mutants of kinase EGFR (BaF3 cell lines stably transfected with kinase) (Homo sapiens, UniProt P00533).
T1 construct: other: BaF3 cells stably transfected with EGFR Δ19Del; MTS, 48 h; other: BaF3 cell line stably transfected with EGFR Δ19Del
Conditions: BaF3 cells stably transfected with EGFR Δ19Del, read-out: IC50, growth inhibition, Δ19Del. The procedure:
(§1) The activity of compounds against various mutants of kinase EGFR was evaluated by their effect of inhibiting growth of BaF3 cell lines stably transfected with kinase. The specific test method was given as follows:
(§2) 1) Culture medium: DMEM (Dulbecco’s modified eagle medium) or RPMI 1640 (containing 10% fetal bovine serum, 100 µg/mL ampicillin, 100 µg/mL streptomycin).
(§3) 2) Reagent: MTS reaction solution (containing 2 mg/mL of MTS [3-(4,5-dimethylthiazol-2-yl)-5-(3-carboxymethoxyphenyl)-2-(4-sulfophenyl)-2H-tetrazoliu m, inner Salt]; 100 µg/mL of PES ([…])).
(§4) 3) Compound test: cells were incubated into a 96-well culture plate, the volume of cytosol was 90 µL, and then 10 µL of the compound at each gradient concentration was added. That is, the highest concentration was 10 µM, which was diluted stepwise by ⅓, and 8 concentration points were set in total; 0.1% DMSO (dimethyl sulfoxide) was contained in the system. The cell plate with uniformly mixed compound was cultured in a cell culture incubator (37° C.; 5% CO2) for 48 h, then 20 µL of MTS reaction solution was added, uniformly mixed and incubated in the cell culture incubator (37° C.; 5% CO2) for 1-4 h. OD values at 490 nm were measured by a microplate reader (VARIOSKAN FLASH, Thermo). Two parallels were set in each group of experiments, with 0.1% (a final concentration) DMSO as a negative control, and a culture medium without cells and compounds as a blank control. The cell growth inhibition rate was calculated by the following formula: […]
(§5) 4) IC50 calculation: The semi-inhibitory concentration of the compounds acting on cells was calculated using GradPad Prism 5 software according to the measured cell growth inhibition rate.

Experiment [2] concerns the target T2, various mutants of kinase EGFR (BaF3 cell lines stably transfected with kinase) (Homo sapiens, UniProt P00533, C797S/L858R/T790M).
T2 construct: expressed in transfected cells; host or cells: BaF3
To be noted: BaF3 cells stably transfected with EGFR L858R/T790M/C797S, read-out: IC50, growth inhibition, L858R/T790M/C797S. How it is done:
as §1, §2, §3, §4, §5

In experiment [3] the target is T3, various mutants of kinase EGFR (BaF3 cell lines stably transfected with kinase) (Homo sapiens, UniProt P00533, L858R).
T3 construct: expressed in transfected cells; host or cells: BaF3
Conditions: BaF3 cells stably transfected with EGFR L858R, read-out: IC50, growth inhibition, L858R. How it is done:
as §1, §2, §3, §4, §5

In experiment [4] the target is T4, various mutants of kinase EGFR (BaF3 cell lines stably transfected with kinase) (Homo sapiens, UniProt P00533, L858R/T790M).
T4 construct: expressed in transfected cells; host or cells: BaF3
To be noted: BaF3 cells stably transfected with EGFR L858R/T790M, read-out: IC50, growth inhibition, L858R/T790M. The procedure: as §1, §2, §3, §4, §5

Experiment [5] deals with T5, various mutants of kinase EGFR (BaF3 cell lines stably transfected with kinase) (Homo sapiens, UniProt P00533, T790M/C797S, form not given).
T5 construct: other: BaF3 cells stably transfected with EGFR Δ19Del/T790M/C797S; MTS, 48; other: BaF3 cell line stably transfected with EGFR Δ19Del/T790M/C7
Conditions: BaF3 cells stably transfected with EGFR Δ19Del/T790M/C797S, read-out: IC50, growth inhibition, Δ19Del/T790M/C797S. How it is done: as §1, §2, §3, §4, §5

Experiment [6] deals with T6, various mutants of kinase EGFR (BaF3 cell lines stably transfected with kinase) (Homo sapiens, UniProt P00533, T790M, form not given).
T6 construct: other: BaF3 cells stably transfected with EGFR Δ19Del/T790M; MTS, 48 h; other: BaF3 cell line stably transfected with EGFR Δ19Del/T790M; MTS, 48
Conditions: BaF3 cells stably transfected with EGFR Δ19Del/T790M, read-out: IC50, growth inhibition, Δ19Del/T790M. The procedure: as §1, §2, §3, §4, §5

Molecules are shown by their SMILES. pIC50: −log10 of the molar value. Some results are limits rather than exact numbers.

T2 sequence (P00533 25-1210 T790M/C797S/L858R): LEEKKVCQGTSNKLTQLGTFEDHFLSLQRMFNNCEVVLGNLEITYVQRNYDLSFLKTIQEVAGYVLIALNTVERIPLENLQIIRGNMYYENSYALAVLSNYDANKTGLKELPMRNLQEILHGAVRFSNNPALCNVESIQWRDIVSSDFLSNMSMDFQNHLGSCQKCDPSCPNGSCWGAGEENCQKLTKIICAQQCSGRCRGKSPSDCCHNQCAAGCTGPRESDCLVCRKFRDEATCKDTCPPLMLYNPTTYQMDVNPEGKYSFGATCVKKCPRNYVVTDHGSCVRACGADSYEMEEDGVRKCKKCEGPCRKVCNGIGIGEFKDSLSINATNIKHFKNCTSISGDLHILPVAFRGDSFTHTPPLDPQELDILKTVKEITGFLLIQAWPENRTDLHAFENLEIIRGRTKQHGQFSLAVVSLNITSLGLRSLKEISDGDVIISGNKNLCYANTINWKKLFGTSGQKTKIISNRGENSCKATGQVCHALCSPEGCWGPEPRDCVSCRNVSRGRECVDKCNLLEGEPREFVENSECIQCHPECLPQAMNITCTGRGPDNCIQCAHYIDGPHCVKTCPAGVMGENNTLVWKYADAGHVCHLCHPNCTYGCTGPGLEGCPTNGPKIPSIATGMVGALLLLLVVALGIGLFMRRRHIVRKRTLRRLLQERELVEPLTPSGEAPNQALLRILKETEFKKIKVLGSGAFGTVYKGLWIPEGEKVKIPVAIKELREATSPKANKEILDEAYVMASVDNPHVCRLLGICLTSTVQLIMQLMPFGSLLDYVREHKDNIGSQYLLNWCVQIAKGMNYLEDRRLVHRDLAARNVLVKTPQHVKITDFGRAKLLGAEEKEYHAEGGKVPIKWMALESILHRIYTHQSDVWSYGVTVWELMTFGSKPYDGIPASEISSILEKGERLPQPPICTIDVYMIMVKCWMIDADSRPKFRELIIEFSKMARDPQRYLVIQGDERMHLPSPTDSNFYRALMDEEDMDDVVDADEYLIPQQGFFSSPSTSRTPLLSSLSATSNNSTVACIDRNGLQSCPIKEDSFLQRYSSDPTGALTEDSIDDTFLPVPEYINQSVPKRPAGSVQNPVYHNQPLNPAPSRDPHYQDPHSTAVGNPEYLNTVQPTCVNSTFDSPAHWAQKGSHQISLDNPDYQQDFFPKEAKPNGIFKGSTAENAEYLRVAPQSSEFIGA
T5 sequence (P00533 with tags, fused parts or gaps DEL746-750/T790M/C797S, form open): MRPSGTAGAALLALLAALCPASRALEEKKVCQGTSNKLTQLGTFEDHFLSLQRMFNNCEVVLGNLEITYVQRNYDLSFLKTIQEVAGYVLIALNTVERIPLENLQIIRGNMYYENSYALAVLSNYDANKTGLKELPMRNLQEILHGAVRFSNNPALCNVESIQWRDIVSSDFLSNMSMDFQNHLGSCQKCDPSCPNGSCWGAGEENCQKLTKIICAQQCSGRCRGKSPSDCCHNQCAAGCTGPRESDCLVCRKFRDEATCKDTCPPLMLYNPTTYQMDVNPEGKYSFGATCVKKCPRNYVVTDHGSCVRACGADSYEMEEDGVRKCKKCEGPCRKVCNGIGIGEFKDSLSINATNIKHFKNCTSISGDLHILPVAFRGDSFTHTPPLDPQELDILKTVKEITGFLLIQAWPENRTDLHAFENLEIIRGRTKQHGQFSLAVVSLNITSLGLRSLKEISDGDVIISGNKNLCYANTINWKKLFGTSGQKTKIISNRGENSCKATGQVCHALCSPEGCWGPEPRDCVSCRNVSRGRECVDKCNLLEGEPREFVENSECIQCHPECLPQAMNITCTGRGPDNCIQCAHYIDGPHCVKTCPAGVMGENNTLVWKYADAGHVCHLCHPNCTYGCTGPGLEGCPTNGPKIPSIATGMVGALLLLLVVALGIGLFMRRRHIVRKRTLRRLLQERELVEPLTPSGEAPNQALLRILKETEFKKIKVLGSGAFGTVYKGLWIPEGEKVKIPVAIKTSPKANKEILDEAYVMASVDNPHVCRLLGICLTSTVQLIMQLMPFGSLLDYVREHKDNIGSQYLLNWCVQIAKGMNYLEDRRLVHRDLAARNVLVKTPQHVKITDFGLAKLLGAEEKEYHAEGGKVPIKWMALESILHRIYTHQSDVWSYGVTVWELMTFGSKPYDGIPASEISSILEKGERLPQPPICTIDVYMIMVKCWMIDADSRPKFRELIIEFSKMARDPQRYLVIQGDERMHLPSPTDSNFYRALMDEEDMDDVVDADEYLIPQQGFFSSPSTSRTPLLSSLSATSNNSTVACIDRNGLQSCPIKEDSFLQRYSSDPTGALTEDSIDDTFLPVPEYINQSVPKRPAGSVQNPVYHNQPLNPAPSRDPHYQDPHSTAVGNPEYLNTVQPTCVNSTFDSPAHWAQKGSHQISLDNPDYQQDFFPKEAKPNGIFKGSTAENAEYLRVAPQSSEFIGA
T1 sequence (P00533 with tags, fused parts or gaps DEL746-750): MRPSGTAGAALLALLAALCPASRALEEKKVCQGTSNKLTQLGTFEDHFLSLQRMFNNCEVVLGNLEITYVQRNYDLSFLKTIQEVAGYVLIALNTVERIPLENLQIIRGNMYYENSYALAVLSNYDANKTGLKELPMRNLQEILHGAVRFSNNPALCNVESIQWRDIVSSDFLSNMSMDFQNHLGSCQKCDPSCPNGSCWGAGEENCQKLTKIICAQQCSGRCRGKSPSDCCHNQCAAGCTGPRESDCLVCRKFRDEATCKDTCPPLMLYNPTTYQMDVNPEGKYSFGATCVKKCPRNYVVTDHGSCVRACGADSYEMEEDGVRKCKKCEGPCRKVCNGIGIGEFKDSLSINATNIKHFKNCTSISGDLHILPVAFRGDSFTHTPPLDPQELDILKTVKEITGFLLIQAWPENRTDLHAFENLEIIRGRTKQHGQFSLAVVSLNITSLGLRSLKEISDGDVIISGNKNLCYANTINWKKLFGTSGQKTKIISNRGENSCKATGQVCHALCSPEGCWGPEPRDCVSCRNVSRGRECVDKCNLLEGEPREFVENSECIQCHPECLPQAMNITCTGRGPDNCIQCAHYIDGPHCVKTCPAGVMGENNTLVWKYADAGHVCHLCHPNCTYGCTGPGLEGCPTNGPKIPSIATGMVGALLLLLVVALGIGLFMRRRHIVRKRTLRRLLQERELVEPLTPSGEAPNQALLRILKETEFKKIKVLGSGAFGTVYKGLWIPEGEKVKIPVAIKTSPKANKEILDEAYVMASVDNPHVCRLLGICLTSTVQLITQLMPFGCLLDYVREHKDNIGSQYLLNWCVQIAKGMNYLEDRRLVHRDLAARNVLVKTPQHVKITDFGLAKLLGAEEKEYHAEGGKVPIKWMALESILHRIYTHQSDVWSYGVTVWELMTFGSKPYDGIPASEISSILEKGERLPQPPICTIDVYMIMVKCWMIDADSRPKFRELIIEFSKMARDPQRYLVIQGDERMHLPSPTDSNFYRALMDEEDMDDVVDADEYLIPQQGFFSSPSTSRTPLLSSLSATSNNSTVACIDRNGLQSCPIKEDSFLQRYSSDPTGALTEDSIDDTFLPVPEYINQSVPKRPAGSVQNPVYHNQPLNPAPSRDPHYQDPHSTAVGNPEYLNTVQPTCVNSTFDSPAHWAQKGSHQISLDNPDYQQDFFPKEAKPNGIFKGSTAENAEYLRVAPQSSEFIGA
T4 sequence (P00533 25-1210 T790M/L858R): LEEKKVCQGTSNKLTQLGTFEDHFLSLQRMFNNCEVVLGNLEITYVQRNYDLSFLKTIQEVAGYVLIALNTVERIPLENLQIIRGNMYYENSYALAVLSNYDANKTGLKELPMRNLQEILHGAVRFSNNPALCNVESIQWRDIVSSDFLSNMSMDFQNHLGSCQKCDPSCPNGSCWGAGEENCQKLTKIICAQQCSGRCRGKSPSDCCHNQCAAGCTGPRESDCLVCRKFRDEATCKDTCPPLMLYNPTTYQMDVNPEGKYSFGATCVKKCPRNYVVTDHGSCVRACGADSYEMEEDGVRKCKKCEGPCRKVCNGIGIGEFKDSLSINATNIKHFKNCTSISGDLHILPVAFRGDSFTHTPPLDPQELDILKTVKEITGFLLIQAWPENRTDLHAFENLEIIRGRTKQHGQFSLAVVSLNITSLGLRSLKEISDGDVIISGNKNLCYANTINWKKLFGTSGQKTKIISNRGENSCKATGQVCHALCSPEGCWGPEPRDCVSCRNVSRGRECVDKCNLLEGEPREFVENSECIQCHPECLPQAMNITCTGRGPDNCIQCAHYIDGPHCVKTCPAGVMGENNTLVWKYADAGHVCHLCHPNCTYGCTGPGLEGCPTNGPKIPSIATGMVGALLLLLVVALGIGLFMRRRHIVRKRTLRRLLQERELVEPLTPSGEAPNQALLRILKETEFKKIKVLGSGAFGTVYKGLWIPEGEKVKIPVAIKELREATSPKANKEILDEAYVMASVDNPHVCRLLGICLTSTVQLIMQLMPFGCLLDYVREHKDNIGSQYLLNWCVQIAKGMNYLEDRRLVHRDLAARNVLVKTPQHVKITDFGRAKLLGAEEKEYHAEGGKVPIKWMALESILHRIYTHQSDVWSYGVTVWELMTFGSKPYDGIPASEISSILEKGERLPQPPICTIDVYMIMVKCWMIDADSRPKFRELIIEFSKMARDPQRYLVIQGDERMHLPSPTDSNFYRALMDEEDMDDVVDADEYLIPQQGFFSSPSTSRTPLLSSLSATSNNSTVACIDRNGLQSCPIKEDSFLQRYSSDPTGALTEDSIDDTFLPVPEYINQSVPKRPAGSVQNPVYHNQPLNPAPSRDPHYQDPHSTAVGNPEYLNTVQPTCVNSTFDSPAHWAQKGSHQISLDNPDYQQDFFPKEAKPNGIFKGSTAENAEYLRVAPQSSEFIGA

With `COc1cc(N2CCC(N3CCN(C)CC3)CC2)ccc1Nc1ncc(Br)c(Nc2ccc3nccnc3c2N(C)S(C)(=O)=O)n1` [Compound I-1], the pIC50 in experiment [1], in experiment [2], in experiment [3], in experiment [4], in experiment [5] and in experiment [6] was not below 7.30 each time.
Turning to `COc1cc(N2CCC(N3CCN(C)CC3)CC2)c(C)cc1Nc1ncc(Br)c(Nc2ccc3nccnc3c2N(C)S(C)(=O)=O)n1` [Compound I-2], the pIC50 in experiment [1], in experiment [2], in experiment [3], in experiment [4], in experiment [5] and in experiment [6] was not below 7.30 throughout.
`CCc1cc(Nc2ncc(Br)c(Nc3ccc4nccnc4c3N(C)S(C)(=O)=O)n2)c(OC)cc1N1CCC(N2CCN(C)CC2)CC1` [Compound I-3]: the pIC50 in experiment [1], in experiment [2], in experiment [3], in experiment [4], in experiment [5] and in experiment [6] was not below 7.30 throughout.
On to `COc1nc(N2CCC(N3CCN(C)CC3)CC2)ccc1Nc1ncc(Br)c(Nc2ccc3nccnc3c2N(C)S(C)(=O)=O)n1` [Compound I-4], for which the pIC50 in experiment [1] was 6.30 to 7.30; in experiment [2], 6.30 to 7.30; in experiment [3], 6.30 to 7.30; in experiment [4], 6.30 to 7.30; in experiment [5], not below 7.30; in experiment [6], 6.30 to 7.30.
In the case of `CCc1cc(Nc2ncc(Br)c(Nc3ccc4nccnc4c3N(C)S(C)(=O)=O)n2)c(OC)nc1N1CCC(N2CCN(C)CC2)CC1` [Compound I-6], the pIC50 in experiment [1] was 6.30 to 7.30; in experiment [2] it was not below 7.30; in experiment [3] it was not below 7.30; in experiment [4], not below 7.30; in experiment [5] it was not below 7.30; in experiment [6], not below 7.30.
With `CN1CCN(C2CCN(c3ccc(Nc4ncc(Br)c(Nc5ccc6nccnc6c5N(C)S(C)(=O)=O)n4)c(OC(F)(F)F)c3)CC2)CC1` [Compound I-7], the pIC50 in experiment [1] is 6.30 to 7.30; in experiment [2], 6.30 to 7.30; in experiment [3], 6.30 to 7.30; in experiment [4] it was 6.30 to 7.30; in experiment [5], not below 7.30; in experiment [6], 6.30 to 7.30.
Turning to `C=Cc1cc(Nc2ncc(Br)c(Nc3ccc4nccnc4c3N(C)S(C)(=O)=O)n2)c(OC(F)(F)F)cc1N1CCC(N2CCN(C)CC2)CC1` [Compound I-9], the pIC50 in experiment [1], in experiment [2], in experiment [3], in experiment [4], in experiment [5] and in experiment [6] was not below 7.30 in each case.
In the case of `COc1cc(N2CCC(N3CCN(C)CC3)CC2)c(CC2CC2)cc1Nc1ncc(Br)c(Nc2ccc3nccnc3c2N(C)S(C)(=O)=O)n1` [Compound I-10], the pIC50 in experiment [1] is 6.30 to 7.30; in experiment [2] it was not below 7.30; in experiment [3], not below 7.30; in experiment [4], not below 7.30; in experiment [5] it was not below 7.30; in experiment [6] it was not below 7.30.
Consider `COc1cc(N2CCC(N3CCN(C)CC3)CC2)c(Cc2ccccc2)cc1Nc1ncc(Br)c(Nc2ccc3nccnc3c2N(C)S(C)(=O)=O)n1` [Compound I-11], for which the pIC50 in experiment [1] was 5.60 to 6.30; in experiment [2] it was 5.60 to 6.30; in experiment [3], 6.30 to 7.30; in experiment [4], 5.60 to 6.30; in experiment [5], 5.60 to 6.30; in experiment [6], 5.60 to 6.30.
As to `COc1cc(N2CCN(C)CC2)c(C)cc1Nc1ncc(Br)c(Nc2ccc3nccnc3c2N(C)S(C)(=O)=O)n1` [Compound I-12], the pIC50 in experiment [1] was 6.30 to 7.30; in experiment [2] it was not below 7.30; in experiment [3] it was not below 7.30; in experiment [4], not below 7.30; in experiment [5] it was not below 7.30; in experiment [6] it was not below 7.30.
Turning to `COc1cc(N2CCC(N(C)C)CC2)c(C)cc1Nc1ncc(Br)c(Nc2ccc3nccnc3c2N(C)S(C)(=O)=O)n1` [Compound I-13], the pIC50 in experiment [1], in experiment [2], in experiment [3], in experiment [4], in experiment [5] and in experiment [6] was not below 7.30 each time.
With `COc1cc(N2CCC(N(C)C)C2)c(C)cc1Nc1ncc(Br)c(Nc2ccc3nccnc3c2N(C)S(C)(=O)=O)n1` (stereo not drawn) [Compound I-14], the pIC50 in experiment [1] is 6.30 to 7.30; in experiment [2], not below 7.30; in experiment [3], not below 7.30; in experiment [4], not below 7.30; in experiment [5], not below 7.30; in experiment [6] it was not below 7.30.
Consider `CCc1cc(Nc2ncc(Br)c(Nc3ccc4nccnc4c3N(C)S(C)(=O)=O)n2)c(OC)cc1N1CCN(C)CC1` [Compound I-15], for which the pIC50 in experiment [1], in experiment [2], in experiment [3], in experiment [4], in experiment [5] and in experiment [6] was not below 7.30 each time.
For `CCc1cc(Nc2ncc(Br)c(Nc3ccc4nccnc4c3N(C)S(C)(=O)=O)n2)c(OC)cc1N1CCC(N(C)C)CC1` [Compound I-16], the pIC50 in experiment [1], in experiment [2], in experiment [3], in experiment [4], in experiment [5] and in experiment [6] was not below 7.30 throughout.
On to `CCc1cc(Nc2ncc(Br)c(Nc3ccc4nccnc4c3N(C)S(C)(=O)=O)n2)c(OC)cc1N1CCC(N(C)C)C1` (stereo not drawn) [Compound I-17], for which the pIC50 in experiment [1], in experiment [2], in experiment [3], in experiment [4], in experiment [5] and in experiment [6] was not below 7.30 in each case.
With `COc1cc(N2CCC(N3CCN(C)CC3)CC2)ccc1Nc1ncc(Cl)c(Nc2ccc3nccnc3c2N(C)S(C)(=O)=O)n1` [Compound I-18], the pIC50 is 6.30 to 7.30 in experiment [1]; 6.30 to 7.30 in experiment [2]; 6.30 to 7.30 in experiment [3]; not below 7.30 in experiment [4]; 6.30 to 7.30 in experiment [5]; 6.30 to 7.30 in experiment [6].
As to `COc1cc(N2CCC(N3CCN(C)CC3)CC2)c(C)cc1Nc1ncc(Cl)c(Nc2ccc3nccnc3c2N(C)S(C)(=O)=O)n1` [Compound I-19], the pIC50 in experiment [1], in experiment [2], in experiment [3], in experiment [4], in experiment [5] and in experiment [6] was not below 7.30 in each case.
Regarding `CCc1cc(Nc2ncc(Cl)c(Nc3ccc4nccnc4c3N(C)S(C)(=O)=O)n2)c(OC)cc1N1CCC(N2CCN(C)CC2)CC1` [Compound I-20], the pIC50 in experiment [1], in experiment [2], in experiment [3], in experiment [4], in experiment [5] and in experiment [6] was not below 7.30 each time.
`CCc1cc(Nc2ncc(Cl)c(Nc3ccc4nccnc4c3N(C)S(C)(=O)=O)n2)c(OC)nc1N1CCC(N2CCN(C)CC2)CC1` [Compound I-21]: the pIC50 in experiment [1] was 6.30 to 7.30; in experiment [2] it was not below 7.30; in experiment [3], not below 7.30; in experiment [4] it was not below 7.30; in experiment [5], not below 7.30; in experiment [6] it was not below 7.30.
As for `CCc1cc(Nc2ncc(Cl)c(Nc3ccc4nccnc4c3N(C)S(C)(=O)=O)n2)c(OC(F)(F)F)cc1N1CCC(N2CCN(C)CC2)CC1` [Compound I-22], the pIC50 in experiment [1] was 6.30 to 7.30; in experiment [2] it was not below 7.30; in experiment [3], 6.30 to 7.30; in experiment [4], 6.30 to 7.30; in experiment [5], not below 7.30; in experiment [6] it was not below 7.30.
